Source: patent publication US20080058213A1, “Benzoxazole Compounds” (priority 2004, published 2008)

What was measured:
Type in all cases: in vivo
southern crabgrass = test: Foliage treatment test for upland field (Test Example 3): southern crabgrass; details: foliage treatment at 1.0-2.0 leaf stage of southern crabgrass, examined after 3 weeks
Outline: (§1)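 Weeds were sown in compost-soil pots in a 25° C glasshouse. Wettable-powder formulations, diluted in water to the prescribed active-ingredient dose, were sprayed at 15 liters per are when southern crabgrass reached the 1.0-2.0 leaf stage. After 3 weeks, growth inhibition versus untreated control was scored 0 (under 20%) to 5 (100%).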

[1] = test system: slender amaranth (Amaranthus viridis); test: Soil treatment test for upland field (Test Example 2): slender amaranth; details: soil treatment before germination, examined after 3 weeks
Outline: (§2)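 Upland soil in 1/3,000 are pots was seeded and covered; compounds formulated as wettable powders, diluted with water to the prescribed active-ingredient dose, were sprayed uniformly onto the soil surface pre-emergence at 15 liters per are. After 3 weeks in a glasshouse at 25° C average, growth inhibition versus untreated control was graded 0–5.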

common purslane = test: Foliage treatment test for upland field (Test Example 3): common purslane; details: foliage treatment at 1.0-2.0 leaf stage of southern crabgrass, examined after 3 weeks
Outline: as §1

[2] = test system: southern crabgrass (Digitaria ciliaris); test: Soil treatment test for upland field (Test Example 2): southern crabgrass; details: soil treatment before germination, examined after 3 weeks
Outline: as §2

[3] = test system: velvetleaf (Abutilon theophrasti); test: Soil treatment test for upland field (Test Example 2): velvetleaf; details: soil treatment before germination, examined after 3 weeks
Outline: as §2

soybean [4] = test: Soil treatment test for upland field (Test Example 2): phytotoxicity to soybean; details: soil treatment before germination, examined after 3 weeks
rice plant = test: Weed control test for paddy field (Test Example 1): phytotoxicity to rice plant; details: paddy pots, treated at 1.0 leaf stage of barnyard grass, examined after 3 weeks
Description: (§3) Paddy field soil was filled in 1/10,000 are pots, kneaded with adequate amounts of water and chemical fertilizer, seeded with barnyard grass (Echinochloa crusgalli), Monochoria (Monochoria vaginalis), Japanese bulrush (Scirpus juncoides) and flat sedge (Cyperus serotinus), and further transplanted with 2.0 leaf stage of rice plant. The pots were maintained under the water-filled condition to a depth of 3 cm.
(§4) Wettable powders containing the compounds (1) as identified in Table 1, which were formulated following Production Example 2, were diluted with adequate amount of water and applied to the pots dropwise with pippet at a prescribed dose of the active ingredients per are, at 1.0 leaf stage of the barnyard grass.
(§5) After placing the pots in a glasshouse which was controlled at an average temperature of 25° C. for 3 weeks, herbicidal effect was examined.
Evaluation of phytotoxicity is shown in the following six grades, as compared with the condition of untreated control: • 0: normal growth • 1: little damaged • 2: low damaged • 3: medium damaged • 4: serious damaged • 5: complete killed.

[5] = test system: Monochoria (Monochoria vaginalis); test: Weed control test for paddy field (Test Example 1): Monochoria; details: paddy pots, treated at 1.0 leaf stage of barnyard grass, examined after 3 weeks
Description: as §3, §4, §5
(§6) Evaluation of the herbicidal effect is shown in the following six grades, by comparing the condition of untreated control and growth inhibition (%): • 0: 0%-less than 20% • 1: 20%-less than 40% • 2: 40%-less than 60% • 3: 60%-less than 80% • 4: 80%-less than 100% • 5: 100%.

velvetleaf = test: Foliage treatment test for upland field (Test Example 3): velvetleaf; details: foliage treatment at 1.0-2.0 leaf stage of southern crabgrass, examined after 3 weeks
Outline: as §1

[6] = test system: common purslane (Portulaca oleracea); test: Soil treatment test for upland field (Test Example 2): common purslane; details: soil treatment before germination, examined after 3 weeks
Outline: as §2

[7] = test system: common lambsquaters (Chenopodium album); test: Soil treatment test for upland field (Test Example 2): common lambsquaters; details: soil treatment before germination, examined after 3 weeks
Outline: as §2

wheat [8] = test: Soil treatment test for upland field (Test Example 2): phytotoxicity to wheat; details: soil treatment before germination, examined after 3 weeks
wheat [9] = test: Foliage treatment test for upland field (Test Example 3): phytotoxicity to wheat; details: foliage treatment at 1.0-2.0 leaf stage of southern crabgrass, examined after 3 weeks
Outline: (§7)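 Crops sown in compost-mixed soil pots, kept in a glasshouse at 25° C. average. Effect scored after 3 weeks versus untreated control on a 0–5 scale (0 normal growth, 5 complete kill).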

soybean [10] = test: Foliage treatment test for upland field (Test Example 3): phytotoxicity to soybean; details: foliage treatment at 1.0-2.0 leaf stage of southern crabgrass, examined after 3 weeks
Outline: as §7

[11] = test system: barnyard grass (Echinochloa crusgalli); test: Weed control test for paddy field (Test Example 1): barnyard grass; details: paddy pots, treated at 1.0 leaf stage of barnyard grass, examined after 3 weeks
Description: as §3, §4, §5, §6

[12] = test system: Japanese bulrush (Scirpus juncoides); test: Weed control test for paddy field (Test Example 1): Japanese bulrush; details: paddy pots, treated at 1.0 leaf stage of barnyard grass, examined after 3 weeks
Description: as §3, §4, §5, §6

corn [13] = test: Soil treatment test for upland field (Test Example 2): phytotoxicity to corn; details: soil treatment before germination, examined after 3 weeks
common lambsquaters = test: Foliage treatment test for upland field (Test Example 3): common lambsquaters; details: foliage treatment at 1.0-2.0 leaf stage of southern crabgrass, examined after 3 weeks
Outline: as §1

[14] = test system: flat sedge (Cyperus serotinus); test: Weed control test for paddy field (Test Example 1): flat sedge; details: paddy pots, treated at 1.0 leaf stage of barnyard grass, examined after 3 weeks
Description: as §3, §4, §5, §6

corn [15] = test: Foliage treatment test for upland field (Test Example 3): phytotoxicity to corn; details: foliage treatment at 1.0-2.0 leaf stage of southern crabgrass, examined after 3 weeks
Outline: as §7

slender amaranth = test: Foliage treatment test for upland field (Test Example 3): slender amaranth; details: foliage treatment at 1.0-2.0 leaf stage of southern crabgrass, examined after 3 weeks
Outline: as §1

For `CCOCC(=Cc1cccc(C(F)(F)F)c1)c1nc2cc(C(F)(F)F)ccc2o1` [Compound 54], the “Herbicidal Effect southern crabgrass” value (southern crabgrass; dose 2.5 g ai/a) was 5 (100%), the “Herbicidal Effect southern crabgrass” value (southern crabgrass; dose 5 g ai/a) was 5 (100%) and the “Herbicidal Effect slender amaranth” value ([1]; dose 2.5 g ai/a) was 5 (100%). The “Herbicidal Effect slender amaranth” value ([1]; dose 5 g ai/a) was 5 (100%), the “Herbicidal Effect common purslane” value (common purslane; dose 2.5 g ai/a) was 5 (100%) and the “Herbicidal Effect common purslane” value (common purslane; dose 5 g ai/a) was 5 (100%). The “Herbicidal Effect southern crabgrass” value ([2]; dose 2.5 g ai/a) was 5 (100%), the “Herbicidal Effect southern crabgrass” value ([2]; dose 5 g ai/a) was 5 (100%) and the “Herbicidal Effect velvetleaf” value ([3]; dose 2.5 g ai/a) was 5 (100%). The “Herbicidal Effect velvetleaf” value ([3]; dose 5 g ai/a) was 5 (100%), the Phytotoxicity soybean (soybean [4]; dose 2.5 g ai/a) was 0 and the Phytotoxicity soybean (soybean [4]; dose 5 g ai/a) was 1. For the same compound, the “Phytotoxicity Rice plant” value (rice plant; dose 2.5 g ai/a) was 1, the “Phytotoxicity Rice plant” value (rice plant; dose 5 g ai/a) was 1 and the “Herbicidal Effect Monochoria vaginalis” value ([5]; dose 2.5 g ai/a) was 5 (100%). The “Herbicidal Effect Monochoria vaginalis” value ([5]; dose 5 g ai/a) was 5 (100%), the “Herbicidal Effect velvetleaf” value (velvetleaf; dose 2.5 g ai/a) was 5 (100%) and the “Herbicidal Effect velvetleaf” value (velvetleaf; dose 5 g ai/a) was 5 (100%). The “Herbicidal Effect common purslane” value ([6]; dose 2.5 g ai/a) was 5 (100%), the “Herbicidal Effect common purslane” value ([6]; dose 5 g ai/a) was 5 (100%) and the “Herbicidal Effect common lambsquaters” value ([7]; dose 2.5 g ai/a) was 5 (100%). For the same compound, the “Herbicidal Effect common lambsquaters” value ([7]; dose 5 g ai/a) was 5 (100%), the Phytotoxicity wheat (wheat [8]; dose 2.5 g ai/a) was 1 and the Phytotoxicity wheat (wheat [8]; dose 5 g ai/a) was 1. The Phytotoxicity wheat (wheat [9]; dose 2.5 g ai/a) was 1, the Phytotoxicity wheat (wheat [9]; dose 5 g ai/a) was 1 and the Phytotoxicity soybean (soybean [10]; dose 2.5 g ai/a) was 2. For the same compound, the Phytotoxicity soybean (soybean [10]; dose 5 g ai/a) was 2, the “Herbicidal Effect Barnyard grass” value ([11]; dose 2.5 g ai/a) was 5 (100%) and the “Herbicidal Effect Barnyard grass” value ([11]; dose 5 g ai/a) was 5 (100%). For the same compound, the “Herbicidal Effect Japanese bulrush” value ([12]; dose 2.5 g ai/a) was 4 (80%-less than 100%), the “Herbicidal Effect Japanese bulrush” value ([12]; dose 5 g ai/a) was 5 (100%) and the Phytotoxicity corn (corn [13]; dose 2.5 g ai/a) was 1. The Phytotoxicity corn (corn [13]; dose 5 g ai/a) was 1, the “Herbicidal Effect Common lambsquatters” value (common lambsquaters; dose 2.5 g ai/a) was 5 (100%) and the “Herbicidal Effect Common lambsquatters” value (common lambsquaters; dose 5 g ai/a) was 5 (100%). For the same compound, the “Herbicidal Effect Flat sedge” value ([14]; dose 2.5 g ai/a) was 3 (60%-less than 80%), the “Herbicidal Effect Flat sedge” value ([14]; dose 5 g ai/a) was 4 (80%-less than 100%) and the Phytotoxicity corn (corn [15]; dose 2.5 g ai/a) was 1. For the same compound, the Phytotoxicity corn (corn [15]; dose 5 g ai/a) was 2, the “Herbicidal Effect slender amaranth” value (slender amaranth; dose 2.5 g ai/a) was 5 (100%) and the “Herbicidal Effect slender amaranth” value (slender amaranth; dose 5 g ai/a) was 5 (100%).
For `COCC(=Cc1ccc(F)c(C(F)(F)F)c1)c1nc2cc(F)c(F)cc2o1` [Compound 126], the “Herbicidal Effect southern crabgrass” value (southern crabgrass; dose 2.5 g ai/a) was 4 (80%-less than 100%), the “Herbicidal Effect southern crabgrass” value (southern crabgrass; dose 5 g ai/a) was 5 (100%) and the “Herbicidal Effect slender amaranth” value ([1]; dose 2.5 g ai/a) was 5 (100%). The “Herbicidal Effect slender amaranth” value ([1]; dose 5 g ai/a) was 5 (100%), the “Herbicidal Effect common purslane” value (common purslane; dose 2.5 g ai/a) was 5 (100%) and the “Herbicidal Effect common purslane” value (common purslane; dose 5 g ai/a) was 5 (100%). The “Herbicidal Effect southern crabgrass” value ([2]; dose 2.5 g ai/a) was 4 (80%-less than 100%), the “Herbicidal Effect southern crabgrass” value ([2]; dose 5 g ai/a) was 5 (100%) and the “Herbicidal Effect velvetleaf” value ([3]; dose 2.5 g ai/a) was 3 (60%-less than 80%). For the same compound, the “Herbicidal Effect velvetleaf” value ([3]; dose 5 g ai/a) was 4 (80%-less than 100%), the Phytotoxicity soybean (soybean [4]; dose 2.5 g ai/a) was 0 and the Phytotoxicity soybean (soybean [4]; dose 5 g ai/a) was 0. For the same compound, the “Phytotoxicity Rice plant” value (rice plant; dose 2.5 g ai/a) was 0, the “Phytotoxicity Rice plant” value (rice plant; dose 5 g ai/a) was 0 and the “Herbicidal Effect Monochoria vaginalis” value ([5]; dose 2.5 g ai/a) was 5 (100%). For the same compound, the “Herbicidal Effect Monochoria vaginalis” value ([5]; dose 5 g ai/a) was 5 (100%), the “Herbicidal Effect velvetleaf” value (velvetleaf; dose 2.5 g ai/a) was 3 (60%-less than 80%) and the “Herbicidal Effect velvetleaf” value (velvetleaf; dose 5 g ai/a) was 4 (80%-less than 100%). For the same compound, the “Herbicidal Effect common purslane” value ([6]; dose 2.5 g ai/a) was 5 (100%), the “Herbicidal Effect common purslane” value ([6]; dose 5 g ai/a) was 5 (100%) and the “Herbicidal Effect common lambsquaters” value ([7]; dose 2.5 g ai/a) was 5 (100%). For the same compound, the “Herbicidal Effect common lambsquaters” value ([7]; dose 5 g ai/a) was 5 (100%), the Phytotoxicity wheat (wheat [8]; dose 2.5 g ai/a) was 0 and the Phytotoxicity wheat (wheat [8]; dose 5 g ai/a) was 0. For the same compound, the Phytotoxicity wheat (wheat [9]; dose 2.5 g ai/a) was 0, the Phytotoxicity wheat (wheat [9]; dose 5 g ai/a) was 1 and the Phytotoxicity soybean (soybean [10]; dose 2.5 g ai/a) was 1. The Phytotoxicity soybean (soybean [10]; dose 5 g ai/a) was 1, the “Herbicidal Effect Barnyard grass” value ([11]; dose 2.5 g ai/a) was 5 (100%) and the “Herbicidal Effect Barnyard grass” value ([11]; dose 5 g ai/a) was 5 (100%). The “Herbicidal Effect Japanese bulrush” value ([12]; dose 2.5 g ai/a) was 3 (60%-less than 80%), the “Herbicidal Effect Japanese bulrush” value ([12]; dose 5 g ai/a) was 4 (80%-less than 100%) and the Phytotoxicity corn (corn [13]; dose 2.5 g ai/a) was 0. For the same compound, the Phytotoxicity corn (corn [13]; dose 5 g ai/a) was 0, the “Herbicidal Effect Common lambsquatters” value (common lambsquaters; dose 2.5 g ai/a) was 5 (100%) and the “Herbicidal Effect Common lambsquatters” value (common lambsquaters; dose 5 g ai/a) was 5 (100%). For the same compound, the “Herbicidal Effect Flat sedge” value ([14]; dose 2.5 g ai/a) was 2 (40%-less than 60%), the “Herbicidal Effect Flat sedge” value ([14]; dose 5 g ai/a) was 3 (60%-less than 80%) and the Phytotoxicity corn (corn [15]; dose 2.5 g ai/a) was 0. For the same compound, the Phytotoxicity corn (corn [15]; dose 5 g ai/a) was 1, the “Herbicidal Effect slender amaranth” value (slender amaranth; dose 2.5 g ai/a) was 5 (100%) and the “Herbicidal Effect slender amaranth” value (slender amaranth; dose 5 g ai/a) was 5 (100%).
